# Ends that are not written are not given here. Peptide text beside a SMILES is read from it.
# Legend:
# Assay type in all cases: cell-based
# Conditions in all cases: HD2 mutant peptides 10 μM, chemokine at EC80
# [1] = biological target: T1, CXCL11 (Homo sapiens, UniProt O14625); test: CXCL11-induced activated T-cell migration, transwell assay
# T1 construct: purchased Peprotech
# T1 sequence (O14625 22-94): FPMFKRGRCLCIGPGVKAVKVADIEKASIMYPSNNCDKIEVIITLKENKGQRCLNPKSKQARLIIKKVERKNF
# Method: FIG. 2. […] BK1.2 is described in (Darlot, 2020). […] Chemokines used are indicated by the name, followed in parenthesis by the supplier code (P in supplier code indicates Peprotech). […] All experiments were performed at EC80 doses of indicated chemokine. Data are shown as box-whisker plots of three technical and three biological replicates. Statistically significant differences (compared to control, indicated by #), using Dunnett's test with correction for multiple comparisons, are indicated by asterisks: ****=P≤0.0001, ***=P≤0.001, **=P≤0.01, *=P≤0.05.
# Briefly, cell migration assays use THP1 cells (human monocyte) and primary human buffy coat white cells (consisting of neutrophil granulocytes, monocytes, and lymphocytes), and activated T-cells. THP1 cells and primary monocytes respond to CCL2, CCL3, CCL5, CCL8 and CXCL4, granulocytes to CXCL1 and CXCL8, activated T-cells to CXCL9/10/11. Assays are performed in 96-well Boyden chambers, and migrated cells counted and characterized using and ATTUNE Flow Cytometer as described. Triplicate assays are performed at the EC80 dose of each chemokine at 10 μM peptide concentration.
# (§1) The J:CXCR1 cell line was generated by transfecting Jurkat cells by electroporation with PvuI-linearized plasmid D1398 and selecting with blasticidin (Sigma-Aldrich, Cat #203350, […]). […] J:CXCR1 cells were cultured in RPMI-1640 media (Gibco), supplemented with 10% FBS and 5 mM L-Glutamine with blasticidin. For J:CXCR1 migration assays, 300,000 cells/well were added to the top chamber of a 3 μm Transwell insert (Corning) in 50 μL of migration media (RPMI-1640, 0.5% FBS, 4 mM L-Glutamine, 0.05% DMSO). The bottom chamber contained 150 μL of chemokine, with or without peptide. Cells were migrated at 37° C. in 5% CO2 for 4 hours. The plate was incubated on a shaking platform for 10 minutes, 800 rpm, at 37° C., and 150 μL from the bottom of the plate transferred into a U-bottom plate containing 50 μL of migration media. Cell counts were determined by Attune NxT Flow Cytometer Plate Reader (ThermoFisher), based on cell size parameters FSC-H/SSC-H. Experiments were performed in 3 technical and 3 biological replicates. THP-1 migration assays were carried out using methods known in the art. Activated T-cell assays were carried out using methods known in the art, with the following modifications in the isolation process. Peripheral blood cells were obtained from leucocyte cones (NHS Blood Transfusion Services), following which, T-cells were isolated using two rounds of human CD8+ T-cell isolation kit (480011, BioLegend). At day 10 after activation, T-cells were frozen at 20 E6 cells/ml in TexMACS medium supplemented with 10% DMSO (D2650, Sigma) in liquid nitrogen. Prior to use, activated T-cells were recovered for 24 hours in TexMACs medium at 0.3 E6 cells/ml and incubated at 37° C. in 5% CO2. Chemokine sources are described in Supplementary information Table 3. Statistical significances between control experimental groups was evaluated using Dunnett's test. IC50 experiments were performed at the EC80 dose of chemokine. EC80 was calculated by fitting a chemokine dose-response curve with 3 parameters (fixing the top to 100%). IC50 was calculated by fitting an inhibitor response curve with 4 parameters.
# [2] = biological target: T2, CCL15 (Homo sapiens, UniProt Q16663); test: CCL15-induced cell migration assay
# T2 sequence (Q16663 22-113): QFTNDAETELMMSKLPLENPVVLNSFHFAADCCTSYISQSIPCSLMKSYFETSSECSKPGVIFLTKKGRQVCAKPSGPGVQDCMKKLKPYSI
# Method: (§2) FIGS. 24 and 25. Effect of exemplar mutant HD2 peptides on chemotaxis. Box-whisker plots showing the effect of the exemplar mutant HD2 peptides on cell migration induced by indicated human chemokines. All experiments were performed as at least three technical and between one to three biological replicates, and individual data points are indicated. […] Chemokine and cell type names are indicated. HD2SCR is a scrambled version of HD2 used as negative control. All peptides were at 10 μM final concentration and chemokines at EC80 doses. Statistically significant differences (compared to control, coloured blue), using Dunnett's test with correction for multiple comparisons, are indicated by asterisks: ****=P≤0.0001, ***=P≤0.001, **=P≤0.01, *=P≤0.05.
# The J:CXCR1 cell line was generated by transfecting Jurkat cells by electroporation with PvuI-linearized plasmid D1398 and selecting with blasticidin (Sigma-Aldrich, Cat #203350, […]). […] J:CXCR1 cells were cultured in RPMI-1640 media (Gibco), supplemented with 10% FBS and 5 mM L-Glutamine with blasticidin. For J:CXCR1 migration assays, 300,000 cells/well were added to the top chamber of a 3 μm Transwell insert (Corning) in 50 μL of migration media (RPMI-1640, 0.5% FBS, 4 mM L-Glutamine, 0.05% DMSO). […] Cell counts were determined by Attune NxT Flow Cytometer Plate Reader (ThermoFisher), based on cell size parameters FSC-H/SSC-H. Experiments were performed in 3 technical and 3 biological replicates. […] Statistical significances between control experimental groups was evaluated using Dunnett's test. […] EC80 was calculated by fitting a chemokine dose-response curve with 3 parameters (fixing the top to 100%). IC50 was calculated by fitting an inhibitor response curve with 4 parameters.
# Migration assays using THP1, activated T-cell (ATC) and J:CXCR1 (Jurkat cells stably transfected with CXCR1 receptor) were performed as described previously. […] EC80 was calculated by fitting a chemokine dose-response curve with 3 parameters (fixing the top to 100%). IC50 was calculated by fitting an inhibitor response curve with 4 parameters. […]
# [3] = biological target: T3, CCL21 (Homo sapiens, UniProt O00585); test: CCL21-induced cell migration assay
# T3 sequence (O00585 24-134): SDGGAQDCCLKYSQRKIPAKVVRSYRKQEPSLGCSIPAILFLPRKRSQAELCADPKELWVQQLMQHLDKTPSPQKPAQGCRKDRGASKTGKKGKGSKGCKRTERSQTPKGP
# Method: as §2, §1
# Migration assays using THP1, activated T-cell (ATC) and J:CXCR1 (Jurkat cells stably transfected with CXCR1 receptor) were performed as described previously. IC50 experiments were performed at the EC80 dose of chemokine. EC80 was calculated by fitting a chemokine dose-response curve with 3 parameters (fixing the top to 100%). IC50 was calculated by fitting an inhibitor response curve with 4 parameters. R-packages used were ggupset_0.3.0, DescTools_0.99.44, and drc_3.0-1.
compound,measurement,setting,value
"CC(C)C[C@H](NC(=O)[C@@H]1CCCN1C(=O)[C@H](C)NC(=O)[C@H](Cc1ccc(O)cc1)NC(=O)[C@H](C)NC(=O)[C@@H](NC(=O)[C@H](Cc1ccc(O)cc1)NC(=O)[C@H](CC(=O)O)NC(=O)[C@H](CC(=O)O)NC(=O)[C@H](CCC(=O)O)NC(=O)[C@@H](N)CCC(=O)O)[C@@H](C)O)C(=O)N[C@H](C(=O)N[C@@H](CS)C(=O)N[C@@H](Cc1ccc(O)cc1)C(=O)N[C@@H](Cc1ccccc1)C(=O)N[C@@H](CS)C(N)=O)[C@@H](C)O [HD2_C16, EEDDYTAYAPLTCYFC] (H-EEDDYTAYAPLTCYFC-NH2; N-terminus assumed)",chemotaxis compared with the parental HD2 peptide,[1],significant reduction in chemotaxis
same,chemotaxis compared with the parental HD2 peptide,[2],significant reduction in chemotaxis
same,chemotaxis compared with the parental HD2 peptide,[3],significant reduction in chemotaxis
"EEDDWTAYAPLTCYFT-NH2 [HD2_W5, EEDDWTAYAPLTCYFT]",chemotaxis compared with the parental HD2 peptide,[1],significant reduction in chemotaxis
same,chemotaxis compared with the parental HD2 peptide,[3],significant reduction in chemotaxis
EEDDYTAYWPLTCYFT [A9W],chemotaxis compared with the parental HD2 peptide,[1],significant reduction in chemotaxis
same,chemotaxis compared with the parental HD2 peptide,[2],significant reduction in chemotaxis
same,chemotaxis compared with the parental HD2 peptide,[3],significant reduction in chemotaxis
EEDDYWAYAPLTCYFT [HD2_W6],chemotaxis compared with the parental HD2 peptide,[1],significant reduction in chemotaxis
same,chemotaxis compared with the parental HD2 peptide,[2],significant reduction in chemotaxis
same,chemotaxis compared with the parental HD2 peptide,[3],significant reduction in chemotaxis

# From patent US20260234188A1, “CHEMOKINE-BINDING PEPTIDES” (Oxford University Innovation Limited, priority 2022, published 2026)
